These results are taken from patent publication US12157745B2, “Heterocyclic systems and pharmaceutical compositions thereof” (University of Sharjah, priority 2018, dated 2024).

One may read the IC50 as the concentration needed to halve the response being measured. The low end stands for inhibition by little substance, the high end for a need for much substance.

Assay in all cases: Full dose-response, survival of cancer cell line (SRB assay)
What all share (type): cell-based

In assay [1] the test system is HCT116. The following applies: Homo sapiens, HCT-116; colon cancer; 48 hours of drug treatment; average of three individual experiments. An excerpt: (§1) Dulbecco's Modified Eagles Medium (DMEM), RPMI 1640 medium and propidium iodide (PI) were purchased from Sigma Aldrich (Darmstadt, Germany). For western blot, the antibodies; c-Myc, p^53, p^21, Bax, Bid, BclxL, GAPDH, caspase-3, caspase-9, p-ATM, p-ATR, p-Chk1, p-Chk2, p-P^53, and p-H2AX along with respective mouse/rabbit secondary antibodies were purchased from Cell Signaling Technology (Danvers, MA, USA). FITC Annexin V Apoptosis kit was purchased from BD Biosciences (New Jersey, USA). All other chemicals and solvents used were of standard analytical grade. The stock solutions of SIMR compounds were made in 100% DMSO and working solutions for treatments never exceeded >1% DMSO. The cell lines were gifted from Radiobiology and Experimental Radio Oncology lab, University Cancer Center, Hamburg University, Hamburg, Germany. F180 and HCT116 cells were cultured in DMEM media while MCF-7 and SKBR3 cells were cultured in RPMI along with 10% FBS and 5% CO2 in a humidified incubator at 37° C. The cells were grown on polystyrene T-75 (75 cm^2) culture flasks and all the experiments were performed at ˜70% cell confluency.
(§2) SRB assay was performed on DU-143 and MCF-7 cells in order to find out the sub-lethal dosage (IC50) of the synthesized compounds based on reported method with minor modifications. Briefly, 1×10^4 cells were seeded in a 96-well plate overnight and were treated with different concentrations of compounds and incubated further for 48 hours. The wells which were devoid of any treatment served as controls. After the treatment time, the plates were incubated with 50% trichloroacetic acid (TCA) at 4° C. for 1 hour. The cells were then washed, dried and exposed to 1% acetic acid for short period. Two hundred microliters of 10 mMtris base solution was then added with 10 min incubation after drying the plates and the OD was read at 492 nm by using a Multiskan™ GO (Thermo Scientific, USA) microplate Spectrophotometer.

Assay [2] concerns MCF7. The following applies: Homo sapiens, breast cancer, 48 hours of drug treatment, average of three individual experiments.
From the text: as §1, §2

Assay [3] relates to SKBR3. The following applies: Homo sapiens, SK-BR-3; breast cancer; 48 hours of drug treatment; average of three individual experiments.
From the text: as §1, §2

For the molecule `CC(=O)Nc1ccc(C2=CSC3=N[C@@H]4c5c(ccc6ccccc56)OC[C@@H]4C(C)(C)N23)cc1` [Compound 1m], the IC50 turned out to be 3.7 µM in assay [1], 4.5 µM in assay [2] and 6.4 µM in assay [3].

Consider `COc1ccc(OC)c(C2=CSC3=N[C@@H]4c5c(ccc6ccccc56)OC[C@@H]4C(C)(C)N23)c1` [Compound 1n], for which the IC50 in assay [1] came out at 6.2 µM; in assay [2] it was 6.76 µM; in assay [3] it was 10.1 µM.

In the case of `CC1=C(c2ccccc2)N2C(=N[C@@H]3c4c(ccc5ccccc45)OC[C@@H]3C2(C)C)S1` [Compound 1q], the IC50 in assay [1] turned out to be 4.7 µM; in assay [2], 11.8 µM; in assay [3], 9.4 µM.

As for `CC1=C(c2ccc(Br)cc2)N2C(=N[C@@H]3c4c(ccc5ccccc45)OC[C@@H]3C2(C)C)S1` [Compound 1r], the concentration for half-maximal inhibition (IC50) was determined as 7.2 µM in assay [1], 8.14 µM in assay [2] and 7.6 µM in assay [3].

For `CC1=C(c2ccc(Cl)c(Cl)c2)N2C(=N[C@H]3c4cc5c6c(c4OC[C@@H]3C2(C)C)CCCN6CCC5)S1` [Compound 1x], the IC50 was 2.3 µM in assay [1], 0.38 µM in assay [2] and 1.4 µM in assay [3].

On to `COc1cccc2c1C(=O)c1c(O)c3c(c(O)c1C2=O)C[C@@](O)(C(=O)CO)C[C@@H]3O[C@H]1C[C@H](N)[C@H](O)[C@H](C)O1` [Doxorubicin, reference compound], for which the results for the 50% inhibitory concentration (IC50) in assay [1], in assay [2] and in assay [3] were 0.096 µM, 0.058 µM and 0.25 µM, respectively.
